Assays:
[1] = target: T1, NOD2 3020InsC frameshift mutant (fsNOD2) (Homo sapiens, UniProt Q9HC29, L1007P); assay: NF-κB-luciferase reporter assay in HEK293T cells transfected with frameshift NOD2 (fsNOD2); type: cell-based; conditions: HEK293T co-transfected with pNF-κB-Luc and NOD2 3020InsC
T1 construct: expressed in transfected cells; host or cells: HEK293T
Procedure: (§1) Transfection was performed as described by Girardin et al., 2003a. HEK293T cells were transfected overnight using 1% FuGENE 6 transfection reagent (Roche Diagnostics, Mannheim, Germany) with 75 ng of the reporter plasmid pNF-kB-Luc (Stratagene, La Jolla, Calif. USA) and 1 ng p-UNO-hNODt (InvivoGen, San Diego, Calif. USA) or fsNOD2 expression plasmids (Begue et al. (2006); Chamaillard et al. (2003)). The plasmid pNF-κB-Luc is a 5.7 kb cis-reporting pNF-κB-Luc plasmid comprising an NF-κB enhancer region and a firefly luciferase gene controlled by a synthetic promoter that contains direct repeats of the transcription recognition sequences for the binding sites for NF-κB (Stratagene, Carlsbad, Calif., USA). The NOD2 3020InsC frameshift mutation was introduced using the QuikChange XL site-directed mutagenesis kit (Stratagene, Carlsbad, Calif., USA). The entire coding region was verified by sequencing and the size of the encoded product was verified by immunoblotting (Girardin et al., 2003b). A total plasmid concentration of 250 ng was achieved by addition of pcDNA3.1 vector.
The NOD2 3020InsC variant comprises a Leu1007-Pro substitution in the tenth leucine-rich region followed by a premature stop codon. It activates the NF-κB pathway to the same extent as wild-type NOD2 when overexpressed, but is unable to detect MDP or PGN (Girardin et al., 2003b).
The specificity of the system was checked by transfecting an expression plasmid for frameshift NOD2 (fsNOD2), a mutant unable to activate NF-κB in response to MDP (FIG. 11E).

NOD2 = target: T2, NOD2 (Homo sapiens, UniProt Q9HC29); assay: NF-κB-luciferase reporter assay in HEK293T cells transfected with NOD2; type: cell-based; conditions: for response of NOD2-transfected cells to inflammatory cytokines: acts via endogenous receptors, compared with fsNOD2 cells
T2 construct: host or cells: HEK293T
T2 sequence (Q9HC29 whole entry): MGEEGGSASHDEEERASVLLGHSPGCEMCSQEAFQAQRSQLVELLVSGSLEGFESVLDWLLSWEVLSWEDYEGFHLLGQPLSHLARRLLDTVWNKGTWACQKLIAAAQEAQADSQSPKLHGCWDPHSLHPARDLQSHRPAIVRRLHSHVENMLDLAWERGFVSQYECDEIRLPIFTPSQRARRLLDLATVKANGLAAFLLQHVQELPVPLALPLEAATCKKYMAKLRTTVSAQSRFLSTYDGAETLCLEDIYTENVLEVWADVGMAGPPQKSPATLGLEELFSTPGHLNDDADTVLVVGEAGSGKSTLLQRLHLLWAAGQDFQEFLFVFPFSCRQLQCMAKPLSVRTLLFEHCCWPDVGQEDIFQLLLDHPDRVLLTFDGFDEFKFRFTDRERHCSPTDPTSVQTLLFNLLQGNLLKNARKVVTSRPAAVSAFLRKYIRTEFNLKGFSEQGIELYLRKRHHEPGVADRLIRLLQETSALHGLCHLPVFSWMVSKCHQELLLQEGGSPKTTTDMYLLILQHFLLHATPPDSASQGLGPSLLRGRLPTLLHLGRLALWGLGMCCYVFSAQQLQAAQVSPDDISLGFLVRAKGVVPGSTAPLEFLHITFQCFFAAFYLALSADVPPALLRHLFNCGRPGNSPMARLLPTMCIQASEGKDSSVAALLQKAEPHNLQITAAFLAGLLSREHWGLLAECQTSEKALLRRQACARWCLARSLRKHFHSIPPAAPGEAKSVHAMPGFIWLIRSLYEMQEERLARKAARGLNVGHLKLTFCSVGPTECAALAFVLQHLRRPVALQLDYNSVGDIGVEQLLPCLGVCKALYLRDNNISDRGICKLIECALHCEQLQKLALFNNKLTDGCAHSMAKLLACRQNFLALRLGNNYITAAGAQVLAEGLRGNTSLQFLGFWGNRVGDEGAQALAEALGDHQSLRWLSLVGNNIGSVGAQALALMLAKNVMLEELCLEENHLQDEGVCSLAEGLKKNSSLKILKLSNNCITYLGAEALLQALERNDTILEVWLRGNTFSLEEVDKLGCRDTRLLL
Procedure: Human embryonic kidney HEK293T cells (American Type Culture Collection (“ATCC,”) Manassas, Va., USA) were cultured in Dulbecco's modified Eagle's medium (Invitrogen, Carlsbad, Calif., USA) supplemented with 10% fetal calf serum (“FCS”) (PAA Laboratories GmbH, Pasching, Austria). HEK293T cells were seeded into 24 well cell culture plates at a density of 10^5 cells/ml (500 μl/well) and transfected with various expression plasmids, as previously described (Girardin 2003a) (FIG. 1).
as §1
Following a twenty hour transfection period, 50 μl of plasma was added into the wells containing the transfected cells. Purified peptidoglycan, diluted in plasma, from S. aureus (Sigma, St. Louis, Mo., USA) and E. coli (kind gift of Dominique Mengin-Lecreulx or InviroGen, San Diego, Calif., USA) served as positive controls. After six hours of peptidoglycan stimulation, the cell supernatant was removed and the cells were lysed with 100 μl of lysis buffer (25 mM Tris-phosphate pH 8, 8 mM MgCl2, 1 mM dithiothreitol, 15% glycerol, and 1% Triton X-100). Luciferase expression was measured from a 10 μl aliquot of cell extract using a microplate luminometer (LB960 luminometer centro, Berthold Technologies, Bad Wildbad, Germany) after addition of 100 μl of substrate buffer to a final concentration of 1.8 mM luciferin and 1 mM ATP. Each measurement was performed in triplicate. The detection level of the assay is at least 0.15 ug/ml PGN, determined by adding purified PGN to healthy donor plasma.
To validate the experimental system, NF-κB activation in HEK293T cells co-transfected with pNF-κB-Luc and pUNO-hNOD2 was tested in response to stimulation with both MPD and PGN derived from S. aureus (FIG. 2). […]

T1 sequence (Q9HC29 1-1007 L1007P): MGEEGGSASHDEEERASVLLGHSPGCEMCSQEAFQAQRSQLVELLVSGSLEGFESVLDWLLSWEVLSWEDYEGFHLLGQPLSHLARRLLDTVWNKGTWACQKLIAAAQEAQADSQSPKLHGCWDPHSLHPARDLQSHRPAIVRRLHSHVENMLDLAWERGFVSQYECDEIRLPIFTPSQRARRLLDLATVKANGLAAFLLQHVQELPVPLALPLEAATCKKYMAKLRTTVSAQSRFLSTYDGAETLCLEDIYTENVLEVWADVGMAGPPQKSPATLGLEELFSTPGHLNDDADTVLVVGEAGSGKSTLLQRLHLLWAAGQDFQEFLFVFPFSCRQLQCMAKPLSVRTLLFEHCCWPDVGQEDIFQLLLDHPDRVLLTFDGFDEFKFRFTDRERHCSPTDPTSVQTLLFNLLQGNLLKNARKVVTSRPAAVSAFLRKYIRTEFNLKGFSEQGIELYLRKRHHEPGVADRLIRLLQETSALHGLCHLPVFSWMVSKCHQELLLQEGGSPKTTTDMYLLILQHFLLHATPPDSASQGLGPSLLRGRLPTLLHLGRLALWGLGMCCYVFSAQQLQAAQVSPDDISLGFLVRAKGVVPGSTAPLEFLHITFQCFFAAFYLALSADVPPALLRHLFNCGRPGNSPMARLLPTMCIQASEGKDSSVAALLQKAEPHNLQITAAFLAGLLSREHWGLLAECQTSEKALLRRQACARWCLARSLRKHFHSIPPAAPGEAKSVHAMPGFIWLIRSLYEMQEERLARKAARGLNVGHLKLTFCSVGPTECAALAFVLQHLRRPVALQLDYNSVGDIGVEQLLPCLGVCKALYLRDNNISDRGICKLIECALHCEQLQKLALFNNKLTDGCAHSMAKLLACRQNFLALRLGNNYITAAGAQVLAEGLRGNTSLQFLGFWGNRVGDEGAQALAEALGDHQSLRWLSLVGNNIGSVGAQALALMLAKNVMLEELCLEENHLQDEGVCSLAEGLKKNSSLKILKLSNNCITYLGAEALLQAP

| Compound | luciferase / NF-κB response in fsNOD2-transfected cells [1] | NF-κB activation (luciferase expression) (NOD2; 300 pM MDP, HEK293T co-transfected with pNF-κB-Luc and pUNO-hNOD2) | signal in NOD2 reporter system (luciferase, RLU) (NOD2; 6 hours of incubation, without plasma) | response of NOD2-transfected cells to inflammatory cytokines (NOD2) |
| --- | --- | --- | --- | --- |
| CC(=O)N[C@H]1C(O)O[C@H](CO)[C@@H](O)[C@@H]1O[C@H](C)C(=O)N[C@@H](C)C(=O)N[C@H](CCC(=O)O)C(N)=O (mixture of isomers) [MDP, muramyl dipeptide] | no increase in luciferase | induced NF-κB activation | positive signals | – |
| interleukin 1β [IL-1β] | similarly responsive | – | – | similarly responsive |
| tumor necrosis factor-α [TNF-α] | similarly responsive | – | – | similarly responsive |

From patent publication US20090317838A1, “DETECTION OF BACTERIAL PEPTIDOGLYCAN-LIKE COMPOUNDS” (priority 2008, published 2009)
